Data from US6660770B2, “Pesticidal activity of functionalized alkenes” (North Carolina State University, priority 1999, dated 2003).

Columns and labels:
[1] = tested on: Mosquito larvae; assay: Mosquito larval mortality bioassay; type: in vivo; conditions: mosquito larval mortality followed for three days in microtiter plates; compound dissolved in dimethylsulfoxide; Brewer's yeast
Method: Mosquito larval mortality was followed for three days in microtiter plates containing 160 μL sterile water, 1-4 μL of the test compound dissolved in dimethylsulfoxide, and 10 μL of 2% Brewer's yeast. Controls were run under the same conditions without the test compounds. Larval mortality in the controls was 3% for 1-3 μL dimethylsulfoxide, and up to 20% for 4 μL dimethylsulfoxide.

[2] = tested on: Ornithodoros parkeri; assay: Repellent assay for ticks; type: in vivo; conditions: ten ticks; for # ticks on acetone: control paper opposite the compound paper; for # ticks on compound: test paper saturated with 60 uL of 15 mg/ml test solution
Method: A repellent assay for ticks is carried out as follows: (1) Prepare 15 mg/ml test solution of test compound in 100% acetone in individual 500 uL bullet tubes. Prepare control solution (1 uL olive oil plus 100 uL 100 acetone). (2) prepare half circle test papers (radious =2.25 cm) from Whatman filter paper (# 2 qualitative). (3) Saturate test papers with 60 uL of 100% acetone, control, or test solution. Test papers are in individual sterile petri dishes during this process. (4) Allow test papers to air dry at room temperature for one hour. (5) Select and place ten ticks into separate sterile glass petri dishes. Allow ticks to acclimate to covered dishes for one hour. (6) Transfer one test paper treated with a test solution and one test paper treated with the control solution to each of separate sterile petri dish bottoms. On control included two test papers treated with acetone. A second control included two test papers treated with the control solution. (7) Place ten ticks in between the two test papers. Place the test arenas in a dark room at room temperature. (8) Record the location of ticks 15 minutes, 1 hour and 2 hours after being placed in the test arenas.

| Structure (SMILES) | Activity (LD50) [1] | # ticks on acetone ([2]; 15 minutes) | # ticks on acetone ([2]; 1 hour) | # ticks on acetone ([2]; 2 hours) | further results |
| --- | --- | --- | --- | --- | --- |
| O=C(O)CC/C=C/CCc1ccccc1 [E-7-Phenylhept-4-enoic acid] | <0.08 mM | – | – | – | – |
| O=C(O)CCCCCCc1ccccc1 [7-Phenylheptanoic acid] | 0.19 ± 0.02 mM | – | – | – | – |
| COc1ccc(CC/C=C/CCC(=O)O)cc1 [E-7-(4-Methoxyphenyl)hept-4-enoic acid] | 1.28 mM | – | – | – | – |
| CCOC(=O)CC/C=C/CCC1CCCCC1 [Compound 218, Ethyl E-7-(Cyclohexyl)hept-4-enoate] | – | 10 | 10 | 10 | – |
| O=C(O)CC/C=C/CCc1ccc(O)cc1 [E-7-(4-Hydroxyphenyl)hept-4-enoic acid, E-7-(4-hydroxyphenyl)hept-4-enoic acid] | 0.59 ± 0.03 mM | – | – | – | – |
| O=C(O)CC/C=C/CCC1CCCCC1 [Compound 172, E-7-(Cyclohexyl)hept-4-enoic Acid] | – | 8 | 10 | 10 | # ticks on compound ([2]; 15 minutes): 2 |
| CCOC(=O)CC/C=C/CCc1ccc(-c2ccccc2)cc1 [Compound 221, Ethyl E-7-((4-phenyl)phenyl)hept-4-enoate] | – | 5 | 4 | 8 | # ticks on compound ([2]; 15 minutes): 5; # ticks on compound ([2]; 1 hour): 4; # ticks on compound ([2]; 2 hours): 2 |
